Tested on: endothelin-1
Assay: Quantification of endothelin-1 by ELISA in conditioned media of PAECs
Assay type: cell-based, human
Conditions: mimic: normoxia and hypoxia, inhibitors: hypoxia 0.2% O2
Experimental: Twenty-four hours after transfection PAECs were washed in PBS, and medium was replaced by media without serum. Twenty-four hour later conditioned media from PAEC transfected as indicated were collected and endothelin-1 was measured by ELISA kit (Enzo biosciences) according to the manufacturer's protocol. Human plasma sample (see below) and mouse plasma were also tested for endothelin-1 level by ELISA.

“tiny-LNA-130: fully LNA-modified tiny LNA oligonucleotide 5′-ATTGCACT-3′ (SEQ ID NO: 3) complementary to the seed region of the miR-130/301 family (all LNA, backbone and methylation of C not given here)” was tested, and the “mature endothelin-1 in conditioned media” value was “decreased endothelin-1 expression to a greater extent than inhibition of miR-130a alone”.
